From the NIST ThermoML archive (doi:10.1021/acs.jced.9b00509)

Experiment: mean ionic activity coefficient (dimensionless); mn = molality of the nth substance listed, in mol/kg
Conditions: 278.15 K, 100 kPa, Liquid, cell potential measurements

[Cl-].[Na+] [sodium chloride] + O
Conditions | mean ionic activity coefficient
m1 = 0.0101 | 0.895
m1 = 0.05 | 0.833
m1 = 0.0999 | 0.771
m1 = 0.1999 | 0.741
m1 = 0.5 | 0.642
m1 = 0.9999 | 0.619
m1 = 1.999 | 0.628
m1 = 2.999 | 0.654
